{"source": "paper PMC5996347", "about": "“2-Mercapto-Quinazolinones as Inhibitors of Type II NADH Dehydrogenase and Mycobacterium tuberculosis: Structure–Activity Relationships, Mechanism of Action and Absorption, Distribution, Metabolism, and Excretion Characterization” (ACS Infectious Diseases, 2018)", "key": {"[1]": {"system": "M. tuberculosis H37Rv", "assay": "H37Rv MIC in GAST medium", "type": "cell-based, Mycobacterium tuberculosis", "settings": "Mycobacterium tuberculosis, H37RV"}, "[2]": {"system": "M. tuberculosis H37Rv", "assay": "microbe, parasite or virus in culture", "type": "cell-based", "settings": "Mycobacterium tuberculosis"}, "[3]": {"system": "cyd knockout strain (cydC::aph)", "type": "cell-based, Mycobacterium tuberculosis"}, "[4]": {"assay": "physchem", "type": "physicochemical", "settings": "pH 7.4", "method": "The chromatographic hydrophobicity index (CHI) was determined according the method previously described.[43],[44] Briefly, test compounds were prepared as 0.5 mM solutions in 50:50 acetonitrile/water and analyzed by reversed-phase HPLC-UV (wavelength 254 nm) using a Phenomenex Luna C18 100 Å, 150 × 4.6 mm, 5 μm column with a gradient of aqueous phase (50 mM ammonium acetate (pH 7.4)) and mobile phase (acetonitrile). By plotting the retention time of a set of reference compounds against known CHI values, the CHI value of test compounds was calculated according to their retention time."}, "[5]": {"assay": "Calculated properties (StarDrop)"}, "[6]": {"assay": "in vitro", "type": "in vitro ADME", "settings": "PAMPA, pH 7.4", "method": "The permeability was performed using a 96-well precoated BD Gentest PAMPA plate (BD Biosciences, U.K.). Each well was divided into two chambers: donor and acceptor, separated by a lipid-oil-lipid trilayer constructed in a porous filter. The effective permeability, Pe, of the compound was measured at pH 7.4. Stock solutions (5 mM) of the compound were prepared in DMSO. The compound was then further diluted to 10 μM in phosphate buffered saline at pH 7.4. […] The compound dissolved in phosphate buffered saline was then added to the donor side of the membrane, and phosphate buffered saline without compound was added to the acceptor side. The PAMPA plate was left at room temperature for 5 h; after which time, an aliquot (100 μL) was then removed from both acceptor and donor compartments and mixed with acetonitrile (80 μL) containing an internal standard: donepezil at 50 ng/mL). The samples were centrifuged (10 min, 5 °C, 3270g) to sediment precipitated protein and sealed prior to UPLC-MS/MS analysis using a Quattro Premier XE (Waters Corp, USA). Pe was calculated as shown in the below equation. [drawing 2] where CA(t) = peak area of compound present in acceptor well at time (t) = 18 000 s; Cequi = [CD(t) × VD + CA(t) × VA]/(VD + VA); A = filter area; VD = donor well volume; VA = acceptor well volume; t = incubation time; CD(t) = peak area of compound present in donor well at time (t) = 18 000 s. Recovery of compound from donor and acceptor wells was calculated, and data was only accepted when recovery exceeded 70%."}, "[7]": {"assay": "Mouse pharmacokinetics", "type": "in vivo, female C57Bl/6 mice", "settings": "female", "method": "Test compound was dosed as a bolus solution intravenously at 3 mg free base/kg (dose volume: 5 mL/kg; dose vehicle: 10% DMSO; 40% PEG400; 50% saline) to female C57Bl/6 mice (n = 3) or dosed orally by gavage as a suspension at 10 or at 5, 30, or 100 mg free base/kg (dose volume: 10 mL/kg; dose vehicle: 1.0% carboxy methyl cellulose) to female C57Bl/6 mice (n = 3/dose level). Blood samples were taken from each mouse tail vein at predetermined time points postdose, mixed with nine volumes of distilled water, and stored frozen until UPLC-MS/MS analysis. Pharmacokinetic parameters were derived from the blood concentration time curve using PK Solutions software v 2.0 (Summit Research Services, USA)."}, "[8]": {"target": "T1, recombinant MBP-MtNdh (MTb NDH-2) (Mycobacterium tuberculosis, UniProt P95160)", "T1 construct": "The ORF corresponding to Rv1854c was codon optimized for E. coli; made in house; host or cells: E. coli BL21 (DE3) pLysS", "T1 sequence (P95160 whole entry)": "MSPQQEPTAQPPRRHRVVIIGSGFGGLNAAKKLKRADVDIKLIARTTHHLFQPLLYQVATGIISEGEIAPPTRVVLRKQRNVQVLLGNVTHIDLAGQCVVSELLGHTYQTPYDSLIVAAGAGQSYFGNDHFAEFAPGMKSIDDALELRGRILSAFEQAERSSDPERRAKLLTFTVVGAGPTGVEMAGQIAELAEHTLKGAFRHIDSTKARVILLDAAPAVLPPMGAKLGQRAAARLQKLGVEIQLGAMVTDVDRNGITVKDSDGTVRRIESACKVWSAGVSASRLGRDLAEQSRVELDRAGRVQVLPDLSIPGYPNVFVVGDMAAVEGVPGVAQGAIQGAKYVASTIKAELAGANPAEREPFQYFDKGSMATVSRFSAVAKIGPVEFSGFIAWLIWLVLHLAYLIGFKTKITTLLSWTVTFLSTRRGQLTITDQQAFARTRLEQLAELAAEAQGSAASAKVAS", "assay": "Ndh activity assay (NADH oxidation at 340 nm)", "type": "biochemical"}, "[9]": {"system": "ndhA mutant", "type": "cell-based", "settings": "results not shown"}, "[10]": {"system": "MTb H37Rv in J774 macrophages", "assay": "Activity against MTb in infected macrophages", "type": "cell-based, Mycobacterium tuberculosis", "settings": "7 days of drug treatment, CFU", "method": "Figure S7. […] J774 macrophages in\n24w plates (500,000 cells per well) were infected with MTb H37Rv at an MOI of 1:1 for 24 hours. Infected cells were washed three times and supplemented with macrophage growth medium with compounds at the indicated concentrations or the DMSO solvent. Cell medium was replenished every 3 days and cells lyzed after 7 days of drug treatment and plated on 7H11/OADC plates for CFU enumeration.\n(1 picture or pasted object on this page, not shown here)"}, "[11]": {"system": "HepG2"}, "[12]": {"settings": "mouse liver microsomes"}, "[13]": {"system": "HepG2", "assay": "cells", "settings": "Homo sapiens, HepG2, read-out: HepG2 IC50"}, "[14]": {"system": "MTb H37Rv", "assay": "Intracellular ATP levels (BacTiter-Glo)", "settings": "24 h drug exposure"}, "[15]": {"system": "M. tuberculosis H37Rv", "assay": "Extracellular flux analysis (oxygen consumption rate)", "settings": "1 at 39 μM, 7 at 45 μM"}, "[16]": {"settings": "C57Bl/6, mouse, in vivo, po, 10 mg/kg"}}, "data": [{"smiles": "O=C(CSc1nc2ccccc2c(=O)[nH]1)NC1CCCCC1", "note": "[Compound 1, N-Cyclohexyl-2-((4-oxo-3,4-dihydroquinazolin-2-yl)thio)acetamide]", "values": [{"measurement": "MIC", "setting": "[1]; read-out: GAST MIC", "value": 0.3, "unit": "µM"}, {"measurement": "MIC", "setting": "[1]; read-out: GAST MIC in ng/mL", "value": 95, "unit": "ng/mL"}, {"measurement": "MIC", "setting": "[2]; read-out: 7H9-ADC MIC", "value": 0.6, "unit": "µM"}, {"measurement": "MIC", "setting": "[2]; read-out: 7H9-ADC MIC in ng/mL", "value": 190, "unit": "ng/mL"}, {"measurement": "Cyd KO reporter", "setting": "[3]", "value": "Not likely QcrB inhibitor"}, {"measurement": "chromatographic logD", "setting": "[4]", "value": 1.8}, {"measurement": "PFI", "setting": "[5]", "value": 4.7}, {"measurement": "Papp at 5 h, 10 μM", "setting": "[6]", "value": 8.3, "unit": "×10⁻⁶ cm/s"}, {"measurement": "Clb", "setting": "[7]; C57Bl/6, mouse, in vivo", "value": 23, "unit": "mL/min/kg"}, {"measurement": "Vd", "setting": "[7]; C57Bl/6, mouse, in vivo", "value": 0.8, "unit": "L/kg"}, {"measurement": "bioavailability", "setting": "[7]; C57Bl/6, mouse, in vivo", "value": 46, "unit": "%"}, {"measurement": "AUC(0-t)", "setting": "[7]; [16]", "value": 2610, "unit": "ng·h/mL"}, {"measurement": "Cmax", "setting": "[7]; [16]", "value": 748, "unit": "ng/mL"}, {"measurement": "half-life", "setting": "[7]; C57Bl/6, whole blood, C57 mouse PK at 3 iv and 10 po (mg/kg), 1 free base, 7 HCl salt", "value": 1.5, "unit": "h"}, {"measurement": "IC50", "setting": "[8]; NADH 250 μM, Q2 40 μM, mean ± SD, Figure 6 inset, read-out: IC50 against MBP-MtNdh", "value": "23 ± 8", "unit": "nM"}, {"measurement": "Ki", "setting": "[8]; varying Q2 or NADH, double reciprocal plots, read-out: Ki against MtNdh", "value": "30 to 40", "unit": "nM"}, {"measurement": "Mode of inhibition against MtNdh", "setting": "[8]; versus Q2 and NADH", "value": "noncompetitive mode of inhibition with both substrates"}, {"measurement": "MIC to ndhA mutant strain compared with WT", "setting": "[9]", "value": "indistinguishable from WT cells"}, {"measurement": "Activity against MTb growing in infected macrophages", "setting": "[10]", "value": "lacked activity"}, {"measurement": "HepG2 cytotoxicity (in words)", "setting": "[11]", "value": "no noticeable cytotoxicity"}, {"measurement": "Mouse microsomal metabolite identification", "setting": "[12]", "value": "significant oxidation of the cyclohexyl and quinazolin-4(3H)-one rings as well as cleavage of the amide bond"}, {"measurement": "IC50", "setting": "[13]", "value": "> 50000", "unit": "nM"}, {"measurement": "Cellular ATP levels in MTb", "setting": "[14]", "value": "depletion of cellular ATP levels"}, {"measurement": "Effect on maximal respiration after CCCP uncoupling", "setting": "[15]; CCCP 3 μM, compared to untreated control", "value": "significantly diminished maximal respiration"}, {"measurement": "Effect on basal MTb OCR", "setting": "[15]; ~45 min, glucose or palmitate", "value": "minimal effect"}]}]}
